{"source": "PubChem BioAssay AID720512", "about": "(Broad Institute, 2013)", "note": "Calls of active or inactive are those of the source. No rule for the calls is given here."}
{"target": "Toxin B (TcdB) glycohydrolase, Clostridioides difficile 630", "assay": "TcdB glycohydrolase inhibitors, dose response, biochemical, cherry-pick, plate reader (AID 720512)", "settings": "recombinant TcdB glycohydrolase activity"}
{"smiles": "CN(C)CCNC(=O)c1cc2c(s1)-c1ccc(Cl)cc1SC2", "AC50": "> 39 µM (inactive)"}
{"smiles": "Oc1ccc2ccc3[nH]cnc3c2c1", "AC50": "> 39 µM (inactive)"}
{"smiles": "CCCNC(=O)C[C@H]1CC[C@@H]2[C@@H](COc3ccc(NC(=O)c4ccc5c(c4)OCO5)cc3C(=O)N2C)O1", "AC50": "> 39 µM (inactive)"}
{"smiles": "S=C(NCCN1CCOCC1)Nc1ccc(Nc2ccccc2)cc1", "AC50": "> 39 µM (inactive)"}
{"smiles": "COc1ccc(C(=O)/C=C/c2ccc(O)cc2)c2c1CC(O)C(C)(C)O2", "note": "(configuration not stated)", "AC50": "> 39 µM (inactive)"}
{"smiles": "COc1ccc(/C=C(/C#N)C(=O)Nc2ccc(O)cc2)cc1C(=O)O", "AC50": "> 39 µM (inactive)"}
{"smiles": "Oc1ccc(-c2cn3ccccc3n2)cc1", "AC50": "12.1 µM"}
{"smiles": "CN(C)CCNc1cccc2sc3ccc(O)cc3c(=O)c12", "AC50": "12.4 µM"}
{"smiles": "O=C(NC(=S)Nc1ccc(N2CCOCC2)cc1)c1ccccc1", "AC50": "> 39 µM (inactive)"}
{"smiles": "ONC(=Nc1ccccc1Cl)c1ccccc1Cl", "AC50": "> 39 µM (inactive)"}
{"smiles": "CCn1c(C)nc2cc(C(=O)N/N=C/c3ccc(OC)c(O)c3)ccc21", "AC50": "> 39 µM (inactive)"}
{"smiles": "CCOc1ccc(/C=N/n2nnnc2N)cc1O", "AC50": "> 39 µM (inactive)"}
{"target": "Toxin B (TcdB) glycohydrolase, Clostridioides difficile 630", "assay": "TcdB glycohydrolase inhibitors, dose response, biochemical, cherry-pick, plate reader (AID 720512)", "settings": "recombinant TcdB glycohydrolase activity, at 19.5 µM (top of the series)"}
{"smiles": "COc1ccc(-c2ccc3c(c2)[C@@H]2[C@@H](CCN2C(=O)CN2CCOCC2)[C@H](CO)N3)cc1", "activity change, negative = inhibition": "inactive"}
{"smiles": "O=C(COc1ccccc1)Nc1ccc(S(=O)(=O)Nc2ncccn2)cc1", "activity change, negative = inhibition": "inactive"}
{"smiles": "COc1ccccc1Oc1cn[nH]c1-c1ccc(O)cc1O", "activity change, negative = inhibition": "inactive"}
{"smiles": "COCC#Cc1ccc2c(c1)O[C@@H](CN(C)C(=O)CC1CC1)[C@H](C)CN([C@@H](C)CO)S2(=O)=O", "activity change, negative = inhibition": "inactive"}
{"smiles": "CCCN1CCN(C(=O)C2CCN(S(=O)(=O)c3c(C)noc3/C=C/c3ccc(C)cc3)CC2)CC1", "activity change, negative = inhibition": "inactive"}
{"smiles": "O=C(NCCc1cccc(Cl)c1)c1ccc(Cl)c([N+](=O)[O-])c1", "activity change, negative = inhibition": "inactive"}
{"smiles": "COc1cccc(CC(=O)OCC(=O)Nc2c(C)nn(-c3ccccc3)c2C)c1", "activity change, negative = inhibition": "inactive"}
{"smiles": "O=C(COC(=O)c1ccc(F)cc1F)c1ccc[nH]1", "activity change, negative = inhibition": "inactive"}
{"smiles": "O=C(NNc1ccc(-c2csnn2)cc1)c1ccccc1C(F)(F)F", "activity change, negative = inhibition": "inactive"}
{"smiles": "O=C(COc1ncnc2ccccc12)NCCc1ccc(F)cc1", "activity change, negative = inhibition": "inactive"}
{"smiles": "COc1cc(/C=N/NC(=O)CCN2CCCCC2)ccc1O", "activity change, negative = inhibition": "inactive"}
{"smiles": "COc1cc(NC(=O)CSc2nc3[nH]ncc3c(=O)n2-c2ccccc2C)cc(OC)c1OC", "activity change, negative = inhibition": "inactive"}
{"smiles": "Cc1c(Cl)cccc1NC(=O)C1Cc2ccccc2CN1C(=O)c1ccccc1", "note": "(configuration not stated)", "activity change, negative = inhibition": "inactive"}
{"smiles": "COc1ccc(OC)c2sc(NNC(=O)C3COc4ccccc4O3)nc12", "note": "(configuration not stated)", "activity change, negative = inhibition": "inactive"}
{"smiles": "COc1cccc(C(=O)OCC(=O)Nc2cc(C)on2)c1OC", "activity change, negative = inhibition": "inactive"}
{"smiles": "O=C(CSc1nc2cc(Cl)ccc2s1)c1ccco1", "activity change, negative = inhibition": "inactive"}
{"smiles": "COc1cc(NC(=O)CCc2nnc3ccc(N4CCC(C)CC4)nn23)cc(OC)c1", "activity change, negative = inhibition": "inactive"}
{"smiles": "COc1ccc(NC(=O)Cn2cnc3sc(C)c(S(=O)(=O)N4CCOCC4)c3c2=O)c(OC)c1", "activity change, negative = inhibition": "inactive"}
{"smiles": "Cc1cccc(-c2n[nH]c(=S)n2/N=C/C=C/c2ccco2)c1", "activity change, negative = inhibition": "inactive"}
{"smiles": "Cc1ccc(NS(=O)(=O)c2ccc(C)c(NC(=S)NCCN3CCOCC3)c2)c(C)c1", "activity change, negative = inhibition": "inactive"}
{"smiles": "CN1C(=O)c2cc(NC(=O)c3cccc(F)c3)ccc2OC[C@@H]2O[C@@H](CC(=O)NCC3CCCCC3)CC[C@H]21", "activity change, negative = inhibition": "inactive"}
{"smiles": "CCc1ccccc1NC(=O)CN1CCN(CC(=O)NCc2ccc(Cl)cc2)CC1", "activity change, negative = inhibition": "inactive"}
{"smiles": "CCn1cc(C(=O)O)c(=O)c2cc(F)c(N3CCN(C(=S)NC(=O)c4ccccc4Br)CC3)cc21", "activity change, negative = inhibition": "inactive"}
{"smiles": "CCOC(=O)C(=O)NNc1ccc(Cl)cc1", "activity change, negative = inhibition": "inactive"}
{"smiles": "Cc1ccc2c(c1)/C(=C/c1ccccc1C)C(=O)N2", "activity change, negative = inhibition": "inactive"}
{"smiles": "CCC(=O)c1cn(CC(=O)Nc2cccc(C)c2C)c2ccccc12", "activity change, negative = inhibition": "inactive"}
{"smiles": "COc1cc(/C=C/C(=O)OCC(=O)c2ccc[nH]2)ccc1O", "activity change, negative = inhibition": "inactive"}
{"smiles": "CC(C)OC(=O)C(=O)NNc1ccccc1", "activity change, negative = inhibition": "inactive"}
{"smiles": "Cc1ccc(CNCCCn2cnc(C(=O)Nc3ccc(C)c(C)c3)n2)o1", "activity change, negative = inhibition": "inactive"}
{"smiles": "S=c1[nH]nc(NC2CCCCC2)s1", "activity change, negative = inhibition": "inactive"}
{"smiles": "Cc1c(CCCC(=O)O)sc(N)c1C(=O)c1cccc(C(F)(F)F)c1", "activity change, negative = inhibition": "inactive"}
{"smiles": "COc1ccc(Br)cc1C(=O)Nc1ccc(O)cc1", "activity change, negative = inhibition": "inactive"}
{"smiles": "Cc1ccc2c(c1)-c1c(cnn1CC(=O)NC(C)CCc1ccco1)CO2", "note": "(configuration not stated)", "activity change, negative = inhibition": "inactive"}
{"smiles": "COc1ccc(-c2csc(NC(=O)c3ccccc3F)c2C(=O)O)cc1", "activity change, negative = inhibition": "inactive"}
{"smiles": "C[C@H](NC(=O)c1cc2c(cn1)[nH]c1ccccc12)C(=O)O", "activity change, negative = inhibition": "inactive"}
{"smiles": "Cc1ccc(S(=O)(=O)Oc2ccccc2/C=C2/SC(=O)NC2=O)cc1", "activity change, negative = inhibition": "inactive"}
{"smiles": "COCC(=O)N1CC[C@@H]2[C@@H](CO)N(C)c3ccc(-c4ccccc4)cc3[C@@H]21", "activity change, negative = inhibition": "inactive"}
{"smiles": "Cc1ccc(C)c2nc(Cl)c(C3NC(=O)c4ccccc4N3)cc12", "note": "(configuration not stated)", "activity change, negative = inhibition": "inactive"}
{"smiles": "NC(=O)c1ccc(NC(=O)CSc2nnc(C3CC3)n2C2CC2)cc1", "activity change, negative = inhibition": "inactive"}
{"smiles": "COCCNc1oc(/C=C/c2ccccc2)nc1C#N", "activity change, negative = inhibition": "inactive"}
{"smiles": "COC(=O)C[C@@H]1CC[C@@H]2[C@H](COC[C@H](O)CN2C(=O)Nc2ccccc2OC)O1", "activity change, negative = inhibition": "inactive"}
{"smiles": "Cc1ccc2sc(NNC(=O)C3COc4ccccc4O3)nc2c1C", "note": "(configuration not stated)", "activity change, negative = inhibition": "inactive"}
{"smiles": "Cn1c(=O)c2c(nc(N3CCOCC3)n2CCSc2ncccn2)n(C)c1=O", "activity change, negative = inhibition": "inactive"}
{"smiles": "O=S(=O)(c1ccccc1)N1CCN=C1SCc1ccccc1", "activity change, negative = inhibition": "inactive"}
{"smiles": "O=C(C[C@@H]1C[C@H]2c3cc(NC(=O)c4ccc5c(c4)OCO5)ccc3O[C@H]2[C@H](CO)O1)NCc1cccc(F)c1", "activity change, negative = inhibition": "inactive"}
{"smiles": "COc1ccccc1C=C1SC(=S)NC1=O", "activity change, negative = inhibition": "inactive"}
{"smiles": "COc1ccc(NC(=O)CN(C)C(=O)c2cccc(NS(=O)(=O)c3ccc(Br)cc3)c2)cc1", "activity change, negative = inhibition": "inactive"}
{"smiles": "Cc1noc(C)c1NC(=O)N(C)C[C@@H]1Oc2ccc(NC(=O)C3CCCCC3)cc2C(=O)N([C@@H](C)CO)C[C@H]1C", "activity change, negative = inhibition": "inactive"}
{"smiles": "Cc1cccc(/C=C/c2onc(C)c2S(=O)(=O)N2CCC(C(=O)N3CCC(C)CC3)CC2)c1", "activity change, negative = inhibition": "inactive"}
{"smiles": "COC(=O)CN1C(C)=Nc2ccc(Br)cc2C1c1ccccc1", "note": "(configuration not stated)", "activity change, negative = inhibition": "inactive"}
{"smiles": "COc1ccc(C(=O)NC(C(=O)NCc2ccccc2OC)C(C)C)cc1", "note": "(configuration not stated)", "activity change, negative = inhibition": "inactive"}
{"smiles": "CCOc1ccccc1-n1c(C)nc2cc(C(=O)O)ccc21", "activity change, negative = inhibition": "inactive"}
{"smiles": "CC(=O)C1=CCC(c2ccccc2)N(S(=O)(=O)c2ccc(C)cc2)C1", "note": "(configuration not stated)", "activity change, negative = inhibition": "inactive"}
{"smiles": "Nc1ccc2c(c1)Nc1ccccc1CC2", "activity change, negative = inhibition": "inactive"}
{"smiles": "c1ccc(-c2nnc(OCC3CCCO3)c3ccccc23)cc1", "note": "(configuration not stated)", "activity change, negative = inhibition": "inactive"}
{"smiles": "CC(=O)NC(Cc1ccccc1)C(=O)Oc1ccc2ccccc2c1", "note": "(configuration not stated)", "activity change, negative = inhibition": "inactive"}
{"smiles": "CCOC(=O)[C@H]1[C@H]2COc3ccc(OC)cc3[C@@H]2N2C(=O)CN(Cc3ccc(Cl)cc3)C(=O)[C@@]12C", "activity change, negative = inhibition": "inactive"}
{"smiles": "COC(=O)Cc1ccc(NC(=S)NCc2ccco2)cc1", "activity change, negative = inhibition": "inactive"}
{"smiles": "CNC(=O)C1CCN(S(=O)(=O)c2c(C)noc2/C=C/c2cccc(C)c2)CC1", "activity change, negative = inhibition": "inactive"}
{"smiles": "C=CCNS(=O)(=O)c1nc(C)c(Cl)c(C)c1C#N", "activity change, negative = inhibition": "inactive"}
{"smiles": "COCCn1c(NC(=S)NC(=O)C2CC2)cc(=O)[nH]c1=O", "activity change, negative = inhibition": "inactive"}
{"smiles": "COc1cc2[nH]c(=S)n(Cc3cccs3)c(=O)c2cc1OC", "activity change, negative = inhibition": "inactive"}
{"smiles": "COc1cc(/C=C/C(=O)OCC(=O)NCc2ccco2)ccc1O", "activity change, negative = inhibition": "inactive"}
{"smiles": "C=CCn1c(C)cc(C(=O)COC(=O)CCc2cc(OC)c(OC)c(OC)c2)c1C", "activity change, negative = inhibition": "inactive"}
{"smiles": "CCC(C)NC(=O)CSc1nc2cc(S(=O)(=O)N3CCOCC3)ccc2n1CC", "note": "(configuration not stated)", "activity change, negative = inhibition": "inactive"}
{"smiles": "CNc1n[nH]c(=S)s1", "activity change, negative = inhibition": "inactive"}
{"smiles": "FC(F)(F)c1cc(Cl)c2nc(-c3ccccc3)c(Cc3ccsc3)n2c1", "activity change, negative = inhibition": "inactive"}
{"smiles": "CCOc1ccccc1/C=C/c1onc(C)c1S(=O)(=O)N1CCC(C(=O)N(CC)CC)CC1", "activity change, negative = inhibition": "inactive"}
{"smiles": "O=C(CCNC(=O)c1ccccc1Cl)N/N=C\\c1ccc(O)cc1", "activity change, negative = inhibition": "inactive"}
{"smiles": "O=C(CC(c1ccccc1)c1ccccc1)Nc1ccc(O)cc1", "activity change, negative = inhibition": "inactive"}
{"smiles": "CSc1ccccc1NC(=O)C1=CC(c2ccc(C)cc2)=NS(=O)(=O)N1C", "activity change, negative = inhibition": "inactive"}
{"smiles": "O=C(C[C@@H]1C[C@H]2c3cc(NC(=O)Nc4ccccc4)ccc3O[C@H]2[C@H](CO)O1)NCc1ccccc1", "activity change, negative = inhibition": "inactive"}
{"smiles": "COc1ccccc1-c1cn[nH]c1-c1ccc(O)cc1O", "activity change, negative = inhibition": "inactive"}
{"smiles": "CCCCc1[nH]c(=O)c(C#N)c2c1CCCC2", "activity change, negative = inhibition": "inactive"}
{"smiles": "CCOC(=O)c1ccc(N=c2sc(C(=O)OC)cc(=O)n2CCCN2CCOCC2)cc1", "activity change, negative = inhibition": "inactive"}
{"smiles": "CC(OC(=O)C1=COCCO1)C(=O)c1ccc(Br)cc1", "note": "(configuration not stated)", "activity change, negative = inhibition": "inactive"}
{"smiles": "COc1ccccc1N1CC(O)=C(c2nc3ccccc3s2)C1=N", "activity change, negative = inhibition": "inactive"}
{"smiles": "Cc1ccc(/C=C/c2onc(C)c2S(=O)(=O)N2CCC(C(=O)NC(C)(C)C)CC2)cc1", "activity change, negative = inhibition": "inactive"}
{"smiles": "Cc1cnc([N+](=O)[O-])n1CCOC(=O)NC(=O)c1ccc(F)cc1", "activity change, negative = inhibition": "inactive"}
{"smiles": "CCCCNC(=O)C1CCN(S(=O)(=O)c2c(C)noc2/C=C\\c2ccc(OC)cc2)CC1", "activity change, negative = inhibition": "inactive"}
